# In patent publication US10308592B2 (priority 2014, dated 2019):
# Read-outs that look alike come from different tables or passages of the source.
# Tests used:
# rat [1] = conditions: in vivo; cited from earlier work
# rat [2] = conditions: in vivo
# male Sprague-Dawley rats = conditions: rat, in vivo
# [3] = male, Sprague-Dawley, rat
# mouse [4] = conditions: in vivo; cited from earlier work
# mouse [5] = conditions: in vivo, inhaled or intranasal
# rats = conditions: rat, in vivo, po, 300 mg/kg
# in vivo = conditions: rat, po, 300 mg/kg
structure (smiles),measurement,setting,value
"FC(F)C(F)(F)OCC(F)(F)F [AE-3000, CF3CH2OCF2CF2H]",LC50 (LD50) data - inhalation,rat [1],LC50 3010 ppm
"CC(OC(F)(F)C(F)C(F)(F)F)C(F)(F)C(F)C(F)(F)F (centres unmarked) [Novec 7600, CF3CFHCF2CH(CH3)OCF2CFHCF3]",NOAEL/NOEL data: NOEL,rat [2]; inhaled or intranasal,29d) <500 ppm
"COC(F)(F)C(F)N1C(F)(F)C(F)(F)OC(F)(F)C1(F)F (centres unmarked) [Example 1, 2,2,3,3,5,5,6,6-octafluoro-4-(1,2,2-trifluoro-2-methoxy-ethyl)morpholine]",chromatographic logP,physchem,4.46
same,LC50 (LD50) data - inhalation,"male Sprague-Dawley rats; male, Sprague-Dawley",LC50 >5000 ppm
same,4 hour LC-50,male Sprague-Dawley rats,> 5000 ppm (v/v)
same,"Clinical observations, body or organ weight effects",male Sprague-Dawley rats,no significant clinical observations or body or organ weight effects were noted
same,Survival and appearance during 14 day post dose recovery period,male Sprague-Dawley rats,All animals survived and appeared normal
same,NOAEL (No Observable Adverse Effect Level),male Sprague-Dawley rats; inhaled or intranasal,> 5000 ppm (v/v)
same,NOAEL/NOEL data: NOEL,male Sprague-Dawley rats; inhaled or intranasal,NOEL >5000 ppm
same,Acute Vapor Hazard Ratio,[3],4
"COC(F)(F)C(C(F)(F)F)C(F)(F)F [OIME, (CF3)2CHCF2OCH3]",LC50 (LD50) data - inhalation,mouse [4],LC50 660 ppm
same,NOAEL/NOEL data: NOAEL by inference,mouse [5],"<660 ppm (mouse,"
"FC(F)C(F)(F)COC(F)(F)C(F)N1C(F)(F)C(F)(F)OC(F)(F)C1(F)F (centres unmarked) [Example 2, 2,2,3,3,5,5,6,6-octafluoro-4-[1,2,2-trifluoro-2-(2,2,3,3-tetrafluoropropoxy)ethyl]morpholine]",Adverse clinical observations during post dose recovery period,rats,No adverse clinical observations were noted
same,Necropsy results,rats,normal for all animals
same,LD50,in vivo,> 300 mg/kg
"COC(F)(F)C(F)C(F)(F)F (centres unmarked) [301-monohydride, CF3CFHCF2OCH3]",LC50 (LD50) data - inhalation,rat [2],"LC50 >10,000 ppm"
same,NOAEL/NOEL data: NOAEL by inference,rat [2]; inhaled or intranasal,"<10,000 ppm (rat"
